How the values were obtained:
[1] = Solubility / solubilization assessment of doravirine and islatravir; format: physicochemical; conditions: islatravir: in water and dissolution media
Excerpt: Details are provided in Example 5.
The manufacturing process includes standard unit operations and equipment for tablet production.

[2] = open container at 5° C./ambient RH, 30° C./65% RH, 40° C./75% RH, and 60° C./ambient RH; cited from earlier work

Structure (SMILES)	Solubility [1]	Time to crystallization on storage [2] [weeks]
C#C[C@@]1(CO)O[C@H](n2cnc3c(N)nc(F)nc32)C[C@H]1O [islatravir, (2S,3R,5S)-5-(6-amino-2-fluoro-9H-purin-9-yl)-2-ethynyl-2-(hydroxymethyl)tetrahydrofuran-3-ol]	high solubility	
Cn1c(Cn2ccc(C(F)(F)F)c(Oc3cc(Cl)cc(C#N)c3)c2=O)n[nH]c1=O [Neat amorphous doravirine, 3-chloro-5-({1-[(4-methyl-5-oxo-4,5-dihydro-1H-1,2,4-triazol-3-yl)methyl]-2-oxo-4-(trifluoromethyl)-1,2-dihydropyridin-3-yl}oxy)benzonitrile]		≤ 2

From patent publication US20260165973A1 (MERCK SHARP & DOHME LLC, priority 2023, published 2026)
